SMILES strings stand for the structures.

One may read the CC50 as the concentration that lowers cell viability or growth by half. Read a low CC50 as harm at low concentration. As a reminder, the EC50 is the midpoint of the concentration-response curve.

A short description of data set [1]: In vitro cytotoxicity assay (MTT cell viability) in HepG2 cells. The format is cell-based, human. As to conditions: human. In outline:
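HepG2 seeded overnight, then 7-day compound exposure (30 μM–1.0 nM, half-log steps), 37 °C. MTT 3-4 h, DMSO solubilization, A492. % of vehicle → CC50, 4-PL fit.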

The test system of data set [2] is HBV replication in HepAD38 cells. As to the kind of experiment: Anti-HBV replication assay in HepAD38 cells (QPCR of extracellular HBV DNA). The format is cell-based, HBV (genotype D, serotype ayw). Conditions: Hepatitis B virus, 168 h, 7 days incubation, extracellular HBV DNA by QPCR, read-out: Anti-HBV EC50. The method, boiled down: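 HepAD38 cells (HepG2 carrying a tet-repressible HBV genotype D genome) were seeded in tetracycline-free medium and treated next day with compound […] for 7 days. Supernatant HBV DNA was measured by QPCR against a standard curve; EC50 came from 4-parameter fits of inhibition versus DMSO control.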

In turn, `Cc1c(C(=O)Nc2cccc(C(F)F)c2)c(C)n(C)c1C(=O)C(=O)N[C@]1(C)C[C@H](O)C1` [Example 705, N-(3-(difluoromethyl)phenyl)-5-(2-(((1s,3s)-3-hydroxy-1-methylcyclobutyl)amino)-2-oxoacetyl)-1,2,4-trimethyl-1H-pyrrole-3-carboxamide] registered a CC50 at 7 days in data set [1] above 30000 nM. In data set [2], the concentration for a half-maximal effect (EC50) is below 50 nM.

With `Cc1cc(NC(=O)c2c(C)c(C(=O)C(=O)Nc3ccc(F)nc3)n(C)c2C)cnc1F` [Example 340, N-(6-fluoro-5-methylpyridin-3-yl)-5-(2-((6-fluoropyridin-3-yl)amino)-2-oxoacetyl)-1,2,4-trimethyl-1H-pyrrole-3-carboxamide], the CC50 at 7 days in data set [1] is above 30000 nM. The EC50 in data set [2] was 500 to 1000 nM.

In the case of `CO[C@H]1CC[C@@H](NC(=O)C(=O)c2c(C)c(C(=O)Nc3cnc(F)c(C)c3)c(C)n2C)CC1` [Example 344, N-(6-fluoro-5-methylpyridin-3-yl)-5-(2-(((1s,4s)-4-methoxycyclohexyl)amino)-2-oxoacetyl)-1,2,4-trimethyl-1H-pyrrole-3-carboxamide], the half-maximal cytotoxic concentration (CC50) at 7 days in data set [1] was above 30000 nM. Also, in data set [2], the concentration giving a half-maximal response (EC50) lay within 50 to 499 nM.

In data set [1], `Cc1noc([C@@H](C)NC(=O)C(=O)c2c(Cl)c(C(=O)Nc3ccc(F)c(Cl)c3)c3n2CCCC3)n1` [Example 524, (R)-2-chloro-N-(3-chloro-4-fluorophenyl)-3-(2-((1-(3-methyl-1,2,4-oxadiazol-5-yl)ethyl)amino)-2-oxoacetyl)-5,6,7,8-tetrahydroindolizine-1-carboxamide] gave a cytotoxic concentration (CC50) at 7 days of 5000 to 30000 nM. The half-maximal effective concentration (EC50) in data set [2] lay within 50 to 499 nM.

In the case of `Cc1cc(NC(=O)c2c(C)c(C(=O)C(=O)NC(C)(C)C)n(CCF)c2C)ccc1F` [Example 115, 5-(2-(tert-butylamino)-2-oxoacetyl)-N-(4-fluoro-3-methylphenyl)-1-(2-fluoroethyl)-2,4-dimethyl-1H-pyrrole-3-carboxamide], in data set [1], the cytotoxic concentration (CC50) at 7 days was above 30000 nM. Further, the half-maximal effective concentration (EC50) in data set [2] is below 50 nM.

Regarding `Cc1cc(NC(=O)c2c(C)c(C(=O)C(=O)N[C@@H](C(=O)NCC(C)(C)O)C(C)(C)C)n(C)c2C)ccc1F` [Example 87, (R)-N-(4-fluoro-3-methylphenyl)-5-(2-((1-((2-hydroxy-2-methylpropyl)amino)-3,3-dimethyl-1-oxobutan-2-yl)amino)-2-oxoacetyl)-1,2,4-trimethyl-1H-pyrrole-3-carboxamide], in data set [1], the half-maximal cytotoxic concentration (CC50) at 7 days was above 30000 nM. The EC50 in data set [2] was below 50 nM.

The compound `Cc1cc(NC(=O)c2c(C)c(C(=O)C(=O)NC3CCN(c4ncccn4)CC3)n(C)c2C)ccc1F` [Example 658] had a CC50 at 7 days in data set [1] of 5000 to 30000 nM. Further, the EC50 in data set [2] is below 50 nM.

On to `Cc1c(C(=O)Nc2ccc(F)c(F)c2)c2n(c1C(=O)C(=O)NC1(CO)CCC1)CCCC2` [Example 460, N-(3,4-difluorophenyl)-3-(2-((1-(hydroxymethyl)cyclobutyl)amino)-2-oxoacetyl)-2-methyl-5,6,7,8-tetrahydroindoline-1-carboxamide], for which the half-maximal cytotoxic concentration (CC50) at 7 days in data set [1] is 5000 to 30000 nM. In data set [2], the 50% effective concentration (EC50) was below 50 nM.

Compound `Cc1c(C(=O)Nc2cc(F)c(F)c(F)c2)c(Cl)c(C(=O)C(=O)NC(C)(C)CO)n1C` [Example 373, 4-chloro-5-(2-((1-hydroxy-2-methylpropan-2-yl)amino)-2-oxoacetyl)-1,2-dimethyl-N-(3,4,5-trifluorophenyl)-1H-pyrrole-3-carboxamide] returned a CC50 at 7 days in data set [1] of 500 to 4990 nM. Further, in data set [2], the EC50 was below 50 nM.

Take `Cc1c(C(=O)Nc2ccc(F)c(Cl)c2)c(C)n(C)c1C(=O)C(=O)Nc1ccc(F)nc1` [Example 312, N-(3-chloro-4-fluorophenyl)-5-(2-((6-fluoropyridin-3-yl)amino)-2-oxoacetyl)-1,2,4-trimethyl-1H-pyrrole-3-carboxamide]: the CC50 at 7 days in data set [1] fell in the range of 5000 to 30000 nM. Moreover, in data set [2], the 50% effective concentration (EC50) is below 50 nM.

In data set [1], `Cc1cc(NC(=O)c2c(C)c(C(=O)C(=O)NCC(C)(C)CO)n3c2CCCC3)ccc1F` [Example 443, N-(4-fluoro-3-methylphenyl)-3-(2-((3-hydroxy-2,2-dimethylpropyl)amino)-2-oxoacetyl)-2-methyl-5,6,7,8-tetreahydroindolizine-1-carboxamide] gave a cytotoxic concentration (CC50) at 7 days of 5000 to 30000 nM. Besides, in data set [2], the concentration giving a half-maximal response (EC50) was below 50 nM.

Take `Cc1cc(NC(=O)c2c(Cl)c(C(=O)C(=O)NCc3cnc(N)s3)n3c2CCCC3)ccc1F` [Example 503, 3-(2-(((2-aminothiazol-5-yl)methyl)amino)-2-oxoacetyl)-2-chloro-N-(4-fluoro-3-methylphenyl)-5,6,7,8-tetrahydroindolizine-1-carboxamide]: the CC50 at 7 days in data set [1] was above 30000 nM. Also, the 50% effective concentration (EC50) in data set [2] is below 50 nM.

In data set [1], `Cc1cc(NC(=O)c2c(C)c(C(=O)C(=O)NC3(C)CC=CCC3)n(C)c2C)ccc1F` (centres unmarked) [Example 694, N-(4-fluoro-3-methylphenyl)-1,2,4-trimethyl-5-(2-((1-methylcyclohex-3-en-1-yl)amino)-2-oxoacetyl)-1H-pyrrole-3-carboxamide] returned a CC50 at 7 days above 30000 nM. The EC50 in data set [2] was below 50 nM.

On to `Cc1c(C(=O)Nc2ccc(F)nc2)c(C)n(C)c1C(=O)C(=O)NC1(C(N)=O)CCCCC1` [Example 93, 5-(2-((1-carbamoylcyclohexyl)amino)-2-oxoacetyl)-N-(6-fluoropyridin-3-yl)-1,2,4-trimethyl-1H-pyrrole-3-carboxamide], for which the CC50 at 7 days in data set [1] was above 30000 nM. In addition, the EC50 in data set [2] lay within 50 to 499 nM.

For `Cc1c(C(=O)Nc2ccc(F)c(Cl)c2)c2n(c1C(=O)C(=O)NCC(C)(C)CO)CCCC2` [Example 466, N-(3-chloro-4-fluorophenyl)-3-(2-((3-hydroxy-2,2-dimethylpropyl)amino)-2-oxoacetyl)-2-methyl-5,6,7,8-tetrahydroindolizine-1-carboxamide], the CC50 at 7 days in data set [1] is above 30000 nM. Also, the EC50 in data set [2] fell in the range of 50 to 499 nM.

In turn, `Cc1c(C(=O)Nc2ccnc(Cl)c2)c(C)n(C)c1C(=O)C(=O)NC(C)(C)CN1CCOCC1` [Example 331, N-(2-chloropyridin-4-yl)-1,2,4-trimethyl-5-(2-((2-methyl-1-morpholinopropan-2-yl)amino)-2-oxoacetyl)-1H-pyrrole-3-carboxamide] gave a CC50 at 7 days in data set [1] above 30000 nM. Besides, the 50% effective concentration (EC50) in data set [2] was below 50 nM.

`Cc1cc(NC(=O)c2c(C)c(C(=O)C(=O)NC(C)(C)CO)n(C)c2C)ccc1F` [Example 8, N-(4-fluoro-3-methylphenyl)-5-(2-((1-hydroxy-2-methylpropan-2-yl)amino)-2-oxoacetyl)-1,2,4-trimethyl-1H-pyrrole-3-carboxamide] registered a CC50 at 7 days in data set [1] above 30000 nM. Also, the EC50 in data set [2] is below 50 nM.

On to `Cc1noc(C(C)NC(=O)C(=O)c2c(C)c(C(=O)Nc3ccc(F)c(C)c3)c(C)n2C)n1` (centres unmarked) [Example 82, N-(4-fluoro-3-methylphenyl)-1,2,4-trimethyl-5-(2-((1-(3-methyl-1,2,4-oxadiazol-5-yl)ethyl)amino)-2-oxoacetyl)-1H-pyrrole-3-carboxamide], for which, in data set [1], the half-maximal cytotoxic concentration (CC50) at 7 days was above 30000 nM. In addition, in data set [2], the EC50 is below 50 nM.

Take `Cc1c(C(=O)NC2(C)CCCC2)c2n(c1C(=O)C(=O)NC(C)(C)CO)CCCC2` [Example 753, 3-(2-((1-hydroxy-2-methylpropan-2-yl)amino)-2-oxoacetyl)-2-methyl-N-(1-methylcyclopentyl)-5,6,7,8-tetrahydroindolizine-1-carboamide]: the 50% cytotoxic concentration (CC50) at 7 days in data set [1] is above 30000 nM. In addition, the EC50 in data set [2] lay in the range of 50 to 499 nM.

In data set [1], `CNC(=O)[C@@H](NC(=O)C(=O)c1c(C)c(C(=O)Nc2ccc(F)c(C)c2)c(C)n1C)[C@H](C)O` [Example 58, N-(4-fluoro-3-methylphenyl)-5-(2-(((2S,3S)-3-hydorxy-1-(methylamino)-1-oxobutan-2-yl)amino)-2-oxoacetyl)-1,2,4-trimethyl-1H-pyrrole-3-carboxamide] yielded a CC50 at 7 days above 30000 nM. Besides, in data set [2], the EC50 lay in the range of 500 to 1000 nM.

In turn, `Cc1cc(NC(=O)c2c(Cl)c(C(=O)C(=O)NCc3cnc(N)s3)n3c2CCC3)ccc1F` [Example 552, 5-(2-(((2-aminothiazol-5-yl)methyl)amino)-2-oxoacetyl)-6-chloro-N-(4-fluoro-3-methylphenyl)-2,3-dihydro-1H-pyrrolizine-7-carboxamide] gave a half-maximal cytotoxic concentration (CC50) at 7 days in data set [1] of 5000 to 30000 nM. In addition, the EC50 in data set [2] is below 50 nM.

Regarding `CC(C)(C)NC(=O)C(=O)c1cc(C(=O)Nc2ccc(F)c(C(F)F)c2)c2n1CCCC2` [Example 400, 3-(2-(tert-butylamino)-2-oxoacetyl)-N-(3-(difluoromethyl)-4-fluorophenyl)-5,6,7,8-tetrahydroindolizine-1-carboxamide], the 50% cytotoxic concentration (CC50) at 7 days in data set [1] was above 30000 nM. Besides, the concentration for a half-maximal effect (EC50) in data set [2] lay within 50 to 499 nM.

For `Cc1c(C(=O)Nc2ccc(F)c(F)c2)c2n(c1C(=O)C(=O)N[C@H]1CCC[C@H]1O)CCCC2` [Example 458, N-(3,4-difluorophenyl)-3-(2-(((1S,2R)-2-hydroxycyclopentyl)amino)-2-oxoacetyl)-2-methyl-5,6,7,8-tetrahydroindolizine-1-carboxamide], the CC50 at 7 days in data set [1] was in the range of 5000 to 30000 nM. The EC50 in data set [2] lay within 500 to 1000 nM.

`COC(=O)[C@H](NC(=O)C(=O)c1c(C)c(C(=O)Nc2ccc(F)c(C)c2)c(C)n1C)C(C)(C)C` [Example 24, methyl (R)-2-(2-(4-((4-fluoro-3-methylphenyl)carbamoyl)-1,3,5-trimethyl-1H-pyrrol-2-yl)-2-oxoacetamido)-3,3-dimethylbutanoate] came in with a 50% cytotoxic concentration (CC50) at 7 days in data set [1] above 30000 nM. Besides, in data set [2], the EC50 was below 50 nM.

`Cc1cc(NC(=O)c2c(C)c(C(=O)C(=O)NC3(C)CCOCC3)n(C)c2C)ccc1F` [Example 277, N-(4-fluoro-3-methylphenyl)-1,2,4-trimethyl-5-(2-((4-methyltetrahydro-2H-pyran-4-yl)amino)-2-oxoacetyl)-1H-pyrrole-3-carboxamide] yielded a CC50 at 7 days in data set [1] above 30000 nM. The concentration for a half-maximal effect (EC50) in data set [2] is below 50 nM.

The values above are taken from patent US20190375708A1 (VenatoRx Pharmaceuticals, Inc., priority 2018, published 2019).
